Patent publication US20200172529A1, “Chemical Compound, Pharmaceutical Composition Thereof, and Use and Application Thereof” (Beijing Hanmi Pharm. Co., Ltd., priority 2017, published 2020)

Columns and labels:
Assay type in all cases: biochemical
JAK1 kinase = JAK1 kinase (Homo sapiens, UniProt P23458); test: Inhibition assay of JAK1 kinase activity (ADP-Glo Kinase Assay)
Source text: Inhibition assay of JAK1 kinase activity: the method in ADP-Glo™ Kinase Assay (Promega, V9102) was used to determine the inhibitory activity of the test compounds against JAK1 kinase.

JAK2 kinase = JAK2 kinase (Homo sapiens, UniProt O60674); test: Inhibition assay of JAK2 kinase activity (ADP-Glo Kinase Assay)
Chain of JAK2 kinase (O60674 whole entry): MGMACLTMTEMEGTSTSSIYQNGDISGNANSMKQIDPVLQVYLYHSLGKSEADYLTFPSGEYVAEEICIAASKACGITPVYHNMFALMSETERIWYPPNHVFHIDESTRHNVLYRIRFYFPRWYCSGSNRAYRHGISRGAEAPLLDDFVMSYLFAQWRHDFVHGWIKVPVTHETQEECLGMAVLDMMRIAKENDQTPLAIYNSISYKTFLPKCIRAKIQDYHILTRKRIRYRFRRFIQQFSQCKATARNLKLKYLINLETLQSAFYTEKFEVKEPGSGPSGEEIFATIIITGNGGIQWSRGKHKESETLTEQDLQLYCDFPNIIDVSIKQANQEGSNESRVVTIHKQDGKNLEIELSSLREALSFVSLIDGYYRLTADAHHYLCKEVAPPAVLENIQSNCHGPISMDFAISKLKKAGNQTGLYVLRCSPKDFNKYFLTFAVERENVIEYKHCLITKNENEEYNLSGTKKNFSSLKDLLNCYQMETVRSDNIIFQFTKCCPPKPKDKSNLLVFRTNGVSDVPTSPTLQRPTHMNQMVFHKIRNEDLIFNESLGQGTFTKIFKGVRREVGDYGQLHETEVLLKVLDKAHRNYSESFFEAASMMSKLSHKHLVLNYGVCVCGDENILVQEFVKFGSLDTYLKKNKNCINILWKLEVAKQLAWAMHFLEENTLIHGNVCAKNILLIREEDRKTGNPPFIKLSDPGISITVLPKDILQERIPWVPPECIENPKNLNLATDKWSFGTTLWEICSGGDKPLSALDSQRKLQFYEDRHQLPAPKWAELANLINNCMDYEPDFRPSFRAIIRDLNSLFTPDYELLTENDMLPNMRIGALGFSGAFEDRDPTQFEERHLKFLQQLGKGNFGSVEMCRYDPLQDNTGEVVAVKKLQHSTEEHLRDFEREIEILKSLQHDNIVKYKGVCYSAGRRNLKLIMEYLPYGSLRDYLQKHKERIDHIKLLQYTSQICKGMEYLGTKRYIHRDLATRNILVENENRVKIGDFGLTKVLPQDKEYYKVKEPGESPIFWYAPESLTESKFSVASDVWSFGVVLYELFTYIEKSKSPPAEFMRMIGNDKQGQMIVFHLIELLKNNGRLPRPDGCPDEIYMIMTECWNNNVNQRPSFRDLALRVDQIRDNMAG
Source text: Inhibition assay of JAK2 kinase activity: the method in ADP-Glo™ Kinase Assay (Promega, V9102) was used to determine the inhibitory activity of the test compounds against JAK2 kinase.

JAK3 kinase = target: T1, JAK3 kinase (Homo sapiens, UniProt P52333); test: Inhibition assay of JAK3 kinase activity (ADP-Glo Kinase Assay)
T1 sequence (P52333 1-1124): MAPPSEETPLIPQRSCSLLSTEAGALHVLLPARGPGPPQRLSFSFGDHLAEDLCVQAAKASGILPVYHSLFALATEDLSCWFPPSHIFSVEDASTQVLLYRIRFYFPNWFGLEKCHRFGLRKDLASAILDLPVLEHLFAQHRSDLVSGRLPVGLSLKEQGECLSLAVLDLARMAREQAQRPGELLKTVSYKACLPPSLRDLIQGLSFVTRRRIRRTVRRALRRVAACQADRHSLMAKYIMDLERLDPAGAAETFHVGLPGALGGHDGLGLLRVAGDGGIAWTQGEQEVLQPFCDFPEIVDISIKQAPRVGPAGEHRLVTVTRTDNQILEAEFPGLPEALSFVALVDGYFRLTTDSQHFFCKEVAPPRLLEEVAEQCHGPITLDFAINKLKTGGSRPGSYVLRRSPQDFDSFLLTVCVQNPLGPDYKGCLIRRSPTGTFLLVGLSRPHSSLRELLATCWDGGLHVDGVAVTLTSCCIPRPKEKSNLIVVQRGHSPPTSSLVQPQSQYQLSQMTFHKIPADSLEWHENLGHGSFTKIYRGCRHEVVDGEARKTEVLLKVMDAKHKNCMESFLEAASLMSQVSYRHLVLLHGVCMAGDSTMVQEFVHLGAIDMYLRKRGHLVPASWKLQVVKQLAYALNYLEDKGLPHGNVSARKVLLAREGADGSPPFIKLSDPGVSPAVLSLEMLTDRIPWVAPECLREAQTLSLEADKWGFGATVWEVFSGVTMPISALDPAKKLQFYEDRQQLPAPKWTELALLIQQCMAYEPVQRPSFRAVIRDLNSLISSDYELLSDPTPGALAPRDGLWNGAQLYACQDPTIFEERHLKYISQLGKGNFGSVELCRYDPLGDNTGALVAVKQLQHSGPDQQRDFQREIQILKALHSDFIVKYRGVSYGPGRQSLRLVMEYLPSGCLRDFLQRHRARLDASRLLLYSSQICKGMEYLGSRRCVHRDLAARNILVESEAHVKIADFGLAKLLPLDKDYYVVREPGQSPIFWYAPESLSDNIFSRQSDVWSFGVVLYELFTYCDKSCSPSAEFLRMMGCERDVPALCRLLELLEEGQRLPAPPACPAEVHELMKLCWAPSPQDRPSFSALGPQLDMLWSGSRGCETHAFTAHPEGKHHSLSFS
Source text: Inhibition assay of JAK3 kinase activity: the method in ADP-Glo™ Kinase Assay (Promega, V9102) was used to determine the inhibitory activity of the test compounds against JAK3 kinase.

TYK2 kinase = target: T2, TYK2 kinase (Homo sapiens, UniProt P29597); test: Inhibition assay of TYK2 kinase activity (ADP-Glo Kinase Assay)
T2 construct: purchased Life Technologies PR8440C
T2 sequence (P29597 whole entry): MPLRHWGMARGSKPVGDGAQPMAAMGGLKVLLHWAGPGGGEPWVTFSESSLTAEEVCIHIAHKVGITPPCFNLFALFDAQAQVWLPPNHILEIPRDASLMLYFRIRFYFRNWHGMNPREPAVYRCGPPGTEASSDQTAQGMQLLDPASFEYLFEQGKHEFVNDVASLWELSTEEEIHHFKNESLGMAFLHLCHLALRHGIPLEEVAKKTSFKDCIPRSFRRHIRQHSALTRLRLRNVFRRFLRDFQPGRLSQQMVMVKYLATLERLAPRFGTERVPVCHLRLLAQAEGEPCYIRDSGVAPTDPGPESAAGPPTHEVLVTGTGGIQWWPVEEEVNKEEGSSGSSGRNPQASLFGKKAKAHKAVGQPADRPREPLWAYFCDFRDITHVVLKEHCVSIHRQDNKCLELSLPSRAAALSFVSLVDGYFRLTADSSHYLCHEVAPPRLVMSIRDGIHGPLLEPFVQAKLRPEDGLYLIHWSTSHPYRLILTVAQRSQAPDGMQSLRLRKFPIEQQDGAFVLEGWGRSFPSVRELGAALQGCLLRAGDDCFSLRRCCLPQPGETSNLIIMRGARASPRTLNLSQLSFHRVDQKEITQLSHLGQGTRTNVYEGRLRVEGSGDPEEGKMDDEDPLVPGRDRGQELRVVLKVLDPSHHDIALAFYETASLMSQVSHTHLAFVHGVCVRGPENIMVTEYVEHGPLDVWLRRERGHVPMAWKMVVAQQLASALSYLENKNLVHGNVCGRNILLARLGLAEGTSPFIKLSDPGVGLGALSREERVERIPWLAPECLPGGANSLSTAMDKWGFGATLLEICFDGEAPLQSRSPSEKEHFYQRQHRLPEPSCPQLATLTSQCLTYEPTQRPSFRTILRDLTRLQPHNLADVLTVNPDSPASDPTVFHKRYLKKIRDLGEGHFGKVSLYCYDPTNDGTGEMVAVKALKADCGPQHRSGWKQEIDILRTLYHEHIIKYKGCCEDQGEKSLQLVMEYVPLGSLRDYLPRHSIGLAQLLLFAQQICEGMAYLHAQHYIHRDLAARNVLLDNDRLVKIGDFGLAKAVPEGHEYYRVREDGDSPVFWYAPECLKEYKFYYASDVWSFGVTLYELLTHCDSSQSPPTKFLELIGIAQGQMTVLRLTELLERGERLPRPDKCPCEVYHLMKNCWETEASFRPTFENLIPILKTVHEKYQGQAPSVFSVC
Description: Determination of inhibition of TYK2 kinase activity by the examples compounds disclosed herein
Inhibition assay of TYK2 kinase activity: the method of ADP-Glo™ Kinase Assay (Promega, V9102) was used to determine the inhibitory activity of the test compounds against TYK2 kinase.
TYK2 kinase (purchased from Life Technologies, article number: PR8440C) was diluted to the 2-fold final concentration (0.8 ng/mL) using reaction buffer (40 mM Tris-HCl, pH 7.5; 20 mM MgCl2; 0.1 mg/mL BSA; 1 mM DTT), and added to a 384-well plate at 5 μL/well. The test drugs were subjected to a 10-fold gradient dilution, from 10 μM, to obtain 6 concentrations, and added to experimental wells of the 384-well plate at 2.5 μL/well. 5 μL of water and 2.5 μL of buffer were added to negative control wells. 5 μL of TYK2 and 2.5 μL of water were added to positive control wells. After incubating for 10 minutes at room temperature, the substrate ATP and polyE4Y1 (Sigma, P0275) were added at 2.5 μL/well, mixed well, and then reacted at room temperature for 60 minutes. After the reaction was completed, the kinase activity was detected according to the instruction of the kit. First, the ADP-Glo reaction reagent was added at 10 μL/well, mixed well, and reacted at room temperature for 40 minutes. The kinase detection reagent was then added at 20 μL/well, mixed well, and then reacted at room temperature for 30 minutes. The detection was then performed and the IC50s of test drugs were calculated.

Chain of JAK1 kinase (P23458 whole entry): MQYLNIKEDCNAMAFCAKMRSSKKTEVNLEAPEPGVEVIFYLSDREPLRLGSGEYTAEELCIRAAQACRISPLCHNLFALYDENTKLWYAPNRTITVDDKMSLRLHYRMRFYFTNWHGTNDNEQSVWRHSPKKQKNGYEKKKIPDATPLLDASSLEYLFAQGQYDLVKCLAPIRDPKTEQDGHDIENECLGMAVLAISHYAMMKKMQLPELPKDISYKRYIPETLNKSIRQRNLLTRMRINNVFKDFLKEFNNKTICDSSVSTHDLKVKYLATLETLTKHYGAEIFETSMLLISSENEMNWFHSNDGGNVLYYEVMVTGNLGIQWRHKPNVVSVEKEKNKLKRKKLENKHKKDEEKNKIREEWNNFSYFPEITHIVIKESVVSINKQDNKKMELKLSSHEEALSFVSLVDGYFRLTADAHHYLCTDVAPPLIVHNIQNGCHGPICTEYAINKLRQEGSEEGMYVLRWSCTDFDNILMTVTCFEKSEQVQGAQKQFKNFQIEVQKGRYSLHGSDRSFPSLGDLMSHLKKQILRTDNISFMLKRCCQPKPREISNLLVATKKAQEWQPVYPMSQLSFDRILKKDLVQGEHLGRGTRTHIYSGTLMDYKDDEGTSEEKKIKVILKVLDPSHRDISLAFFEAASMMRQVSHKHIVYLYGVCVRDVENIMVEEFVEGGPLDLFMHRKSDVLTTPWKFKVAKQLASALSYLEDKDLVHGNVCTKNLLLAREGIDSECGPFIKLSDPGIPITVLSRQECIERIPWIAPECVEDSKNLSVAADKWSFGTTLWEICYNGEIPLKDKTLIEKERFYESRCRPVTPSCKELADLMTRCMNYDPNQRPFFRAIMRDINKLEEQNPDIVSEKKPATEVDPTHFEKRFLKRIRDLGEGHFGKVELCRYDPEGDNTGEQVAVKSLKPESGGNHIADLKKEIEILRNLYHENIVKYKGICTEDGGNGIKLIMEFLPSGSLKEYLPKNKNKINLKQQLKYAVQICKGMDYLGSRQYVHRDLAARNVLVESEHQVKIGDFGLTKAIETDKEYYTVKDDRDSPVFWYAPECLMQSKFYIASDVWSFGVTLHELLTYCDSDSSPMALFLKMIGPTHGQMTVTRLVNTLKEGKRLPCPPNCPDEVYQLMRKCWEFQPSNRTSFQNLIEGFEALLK

Structure (SMILES)	IC50 (JAK1 kinase) [nM]	IC50 (JAK2 kinase) [nM]	IC50 (JAK3 kinase) [nM]	IC50 (TYK2 kinase) [nM]
COC12CC3CC(C1)C(Nc1nc(Nc4ccc5c(c4)NC[C@H](O)CO5)ncc1C(N)=O)C(C3)C2 (stereo partly drawn) [Example 46, 4-((5-methoxyadamantan-2-yl)amino)-2-(((S)-2,3,4,5-tetrahydro-3-hydroxybenzo[b][1,4]oxazepin-7-yl)amino)pyrimidin-5-carboxamide]	< 10	< 10	< 10	< 10
C#CCNc1nc(Nc2ccc3c(c2)NC[C@H](O)CO3)ncc1C(N)=O [Example 65, 4-(prop-2-yn-1-ylamino)-2-(((S)-2,3,4,5-tetrahydro-3-hydroxybenzo[b][1,4]oxazepin-7-yl)amino)pyrimidin-5-carboxamide]	< 10	10 to 100	10 to 100	< 10
NC(=O)c1cnc(Nc2ccc3c(c2)NC[C@H](O)CO3)nc1NCCCO [Example 51, 4-((3-hydroxypropyl)amino)-2-(((S)-2,3,4,5-tetrahydro-3-hydroxybenzo[b][1,4]oxazepin-7-yl)amino)pyrimidin-5-carboxamide]	10 to 100	10 to 100	10 to 100	< 10
CC(C)(C)Nc1nc(Nc2ccc3c(c2)NC[C@H](O)CO3)ncc1C(N)=O [Example 53, 4-(tert-butylamino)-2-(((S)-2,3,4,5-tetrahydro-3-hydroxybenzo[b][1,4]oxazepin-7-yl)amino)pyrimidin-5-carboxamide]	10 to 100	10 to 100	10 to 100	< 10
CCCCO[C@H]1CNc2cc(Nc3ncc(C(N)=O)c(NC4CC4)n3)ccc2OC1 [Example 81, 4-(cyclopropylamino)-2-(((S)-2,3,4,5-tetrahydro-3-butoxybenzo[b][1,4]oxazepin-7-yl)amino)pyrimidin-5-carboxamide]	10 to 100		10 to 100	< 10
NC(=O)c1cnc(Nc2ccc3c(c2)NC[C@H](O)CO3)nc1NCC1CCC1 [Example 56, 4-((cyclobutylmethyl)amino)-2-(((S)-2,3,4,5-tetrahydro-3-hydroxybenzo[b][1,4]oxazepin-7-yl)amino)pyrimidin-5-carboxamide]	< 10	< 10	< 10	< 10
NC(=O)c1cnc(Nc2ccc3c(c2)NC[C@H](O)CO3)nc1NC1CC(F)(F)C1 [Example 54, 4-((3,3-difluorocyclobutyl)amino)-2-(((S)-2,3,4,5-tetrahydro-3-hydroxybenzo[b][1,4]oxazepin-7-yl)amino)pyrimidin-5-carboxamide]	10 to 100	10 to 100	10 to 100	< 10
CC(C)(C)OCCO[C@H]1CNc2cc(Nc3ncc(C(N)=O)c(NC4CC4)n3)ccc2OC1 [Example 103, 4-(cyclopropylamino)-2-(((S)-2,3,4,5-tetrahydro-3-(2-(tert-butoxy)ethoxy)benzo[b][1,4]oxazepin-7-yl)amino)pyrimidin-5-carboxamide]	< 10	10 to 100	10 to 100	< 10
NC(=O)c1cnc(Nc2ccc3c(c2)NC[C@H](O)CO3)nc1NC1CCOC1 (stereo partly drawn) [Example 64, 4-(tetrahydrofuran-3-ylamino)-2-(((S)-2,3,4,5-tetrahydro-3-hydroxybenzo[b][1,4]oxazepin-7-yl)amino)pyrimidin-5-carboxamide]	10 to 100	10 to 100	10 to 100	< 10
NC(=O)c1cnc(Nc2ccc3c(c2)NC[C@H](O)CO3)nc1NCCN1CCOCC1 [Example 61, 4-((2-morpholinoethyl)amino)-2-(((S)-2,3,4,5-tetrahydro-3-hydroxybenzo[b][1,4]oxazepin-7-yl)amino)pyrimidin-5-carboxamide]	10 to 100	10 to 100	10 to 100	< 10
NC(=O)c1cnc(Nc2ccc3c(c2)NC[C@H](O)CO3)nc1NC1C2CC3CC1CC(O)(C3)C2 (stereo partly drawn) [Example 38, 4-((1-hydroxyadamantan-4-yl)amino)-2-(((S)-2,3,4,5-tetrahydro-3-hydroxybenzo[b][1,4]oxazepin-7-yl)amino)pyrimidin-5-carboxamide]	< 10	< 10	< 10	< 10

Further lines, results first:

IC50 (JAK1 kinase) [nM]	IC50 (JAK2 kinase) [nM]	IC50 (JAK3 kinase) [nM]	IC50 (TYK2 kinase) [nM]	Structure (SMILES)
< 10	10 to 100	10 to 100	< 10	CCCO[C@H]1CNc2cc(Nc3ncc(C(N)=O)c(NC4CC4)n3)ccc2OC1 [Example 82, 4-(cyclopropylamino)-2-(((S)-2,3,4,5-tetrahydro-3-propoxybenzo[b][1,4]oxazepin-7-yl)amino)pyrimidin-5-carboxamide]
		10 to 100	< 10	NC(=O)c1cnc(Nc2ccc3c(c2)NCCCO3)nc1NC1CC1 [Example 77, 4-(cyclopropylamino)-2-((2,3,4,5-tetrahydrobenzo[b][1,4]oxazepin-7-yl)amino)pyrimidin-5-carboxamide]
< 10	< 10	< 10	< 10	CO[C@H]1CNc2cc(Nc3ncc(C(N)=O)c(NC4C5CC6CC4CC(OC)(C6)C5)n3)ccc2OC1 (stereo partly drawn) [Example 93, 4-((5-methoxyadamantan-2-yl)amino)-2-(((S)-2,3,4,5-tetrahydro-3-methoxybenzo[b][1,4]oxazepin-7-yl)amino)pyrimidin-5-carboxamide]
< 10	< 10	< 10	< 10	NC(=O)c1cnc(Nc2ccc3c(c2)NC[C@H](O)CO3)nc1NCC1CCCC1 [Example 73, 4-((cyclopentylmethyl)amino)-2-(((S)-2,3,4,5-tetrahydro-3-hydroxybenzo[b][1,4]oxazepin-7-yl)amino)pyrimidin-5-carboxamide]
< 10	< 10	< 10	< 10	CCCCNc1nc(Nc2ccc3c(c2)NC[C@H](O)CO3)ncc1C(N)=O [Example 74, 4-(butylamino)-2-(((S)-2,3,4,5-tetrahydro-3-hydroxybenzo[b][1,4]oxazepin-7-yl)amino)pyrimidin-5-carboxamide]
< 10	10 to 100	10 to 100	< 10	NC(=O)c1cnc(Nc2ccc3c(c2)NC[C@H](OCC2CCCOC2)CO3)nc1NC1CC1 (stereo partly drawn) [Example 102, 4-(cyclopropylamino)-2-(((S)-2,3,4,5-tetrahydro-3-((tetrahydropyran-3-yl)methoxy)benzo[b][1,4]oxazepin-7-yl)amino)pyrimidin-5-carboxamide]
< 10	< 10	< 10	< 10	CCCCCNc1nc(Nc2ccc3c(c2)NC[C@H](O)CO3)ncc1C(N)=O [Example 75, 4-(pentylamino)-2-(((S)-2,3,4,5-tetrahydro-3-hydroxybenzo[b][1,4]oxazepin-7-yl)amino)pyrimidin-5-carboxamide]
